According to patent US9468661B2, “Pyrrolidine derivatives and their use as complement pathway modulators” (priority 2012, dated 2016):

The molecules below were run against human factor D (Homo sapiens (Human), UniProt P00746) (assay: biochemical). Conditions: Factor D inhibition data using Method 1; recombinant human factor D 10 nM, substrate Z-Lys-thiobenzyl, fluorescence; read-out: IC50.
Type: biochemical
Outline: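 E. coli-expressed recombinant human factor D (10 nM) was preincubated with compound for 1 h at room temperature in 0.1 M Hepes pH 7.5, 1 mM MgCl2, 1 M NaCl, 0.05% CHAPS. Fluorescence (ex 485/em 535 nm) was read after adding Z-Lys-thiobenzyl (200 μM) and 2,4-dinitrobenzenesulfonyl-fluoresceine (25 μM); IC50 came from percent inhibition versus concentration.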

Chain of human factor D (P00746 26-253): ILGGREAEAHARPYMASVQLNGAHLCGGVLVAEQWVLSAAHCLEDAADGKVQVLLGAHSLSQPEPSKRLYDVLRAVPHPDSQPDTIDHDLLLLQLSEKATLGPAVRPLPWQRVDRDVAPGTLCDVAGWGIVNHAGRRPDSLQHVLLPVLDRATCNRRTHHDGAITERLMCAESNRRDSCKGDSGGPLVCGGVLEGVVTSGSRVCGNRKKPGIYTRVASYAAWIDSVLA

Row | Compound | IC50 [µM]
1 | NC(=O)c1nn(CC(=O)N2[C@@H]3C[C@@H]3C[C@H]2C(=O)NC[C@H]2CC2(Cl)Cl)c2ccc(Cl)cc12 [Example 97, 5-Chloro-1-(2-{(1R,3S,5R)-3-[((R)-2,2-dichloro-cyclopropylmethyl)-carbamoyl]-2-aza-bicyclo[3.1.0]hex-2-yl}-2-oxo-ethyl)-1H-indazole-3-carboxylic acid amide] | 0.218
2 | CC(=O)c1nn(CC(=O)N2[C@@H]3C[C@@H]3C[C@H]2C(=O)NC[C@H]2CC2(Cl)Cl)c2ccc(OC(C)c3ncccn3)cc12 (stereo partly drawn) [Example 100, (1R,3S,5R)-2-{2-[3-Acetyl-5-(1-pyrimidin-2-yl-ethoxy)-indazol-1-yl]-acetyl}-2-aza-bicyclo[3.1.0]hexane-3-carboxylic acid ((R)-2,2-dichloro-cyclopropylmethyl)-amide] | 0.158
3 | CC(=O)c1nn(CC(=O)N2[C@@H]3C[C@@H]3C[C@H]2C(=O)NCC2CC2(C)C)c2ncccc12 (stereo partly drawn) [Example 12, (1R,3S,5R)-2-[2-(3-Acetyl-pyrazolo[3,4-b]pyridin-1-yl)-acetyl]-2-aza-bicyclo[3.1.0] hexane-3-carboxylic acid (2,2-dimethyl-cyclopropylmethyl)-amide] | 1.41
4 | NC(=O)c1nn(CC(=O)N2[C@@H]3C[C@@H]3C[C@H]2C(=O)NC[C@H]2CC2(Cl)Cl)c2ccccc12 [Example 31, 1-(2-{(1R,3S,5R)-3-[((R)-2,2-Dichloro-cyclopropylmethyl)-carbamoyl]-2-aza-bicyclo[3.1.0]hex-2-yl}-2-oxo-ethyl)-1H-indazole-3-carboxylic acid amide] | 0.032
5 | CC(=O)c1nn(CC(=O)N2[C@@H]3C[C@@H]3C[C@H]2C(=O)NCC2CC2(Cl)Cl)c2ncccc12 (stereo partly drawn) [Example 11, (1R,3S,5R)-2-[2-(3-Acetyl-pyrazolo[3,4-b]pyridin-1-yl)-acetyl]-2-aza-bicyclo[3.1.0] hexane-3-carboxylic acid (2,2-dichloro-cyclopropylmethyl)-amide] | 0.163
6 | CC1(C)[C@H](CNC(=O)[C@@H]2C[C@H]3C[C@H]3N2C(=O)Cn2nc(C(N)=O)c3ccncc32)C1(Cl)Cl [Example 102, 1-(2-{(1R,3S,5R)-3-[((R)-2,2-Dichloro-3,3-dimethyl-cyclopropylmethyl)-carbamoyl]-2-aza-bicyclo[3.1.0]hex-2-yl}-2-oxo-ethyl)-1H-pyrazolo[3,4-c]pyridine-3-carboxylic acid amide] | 0.118
7 | NC(=O)c1nn(CC(=O)N2[C@@H]3C[C@@H]3C[C@H]2C(=O)NC[C@@H]2CC2(Cl)Cl)c2ccccc12 [Example 70, 1-(2-{(1R,3S,5R)-3-[((S)-2,2-Dichloro-cyclopropylmethyl)-carbamoyl]-2-aza-bicyclo[3.1.0]hex-2-yl}-2-oxo-ethyl)-1H-indazole-3-carboxylic acid amide] | 0.09
8 | C[C@@H](NC(=O)[C@@H]1C[C@H]2C[C@H]2N1C(=O)Cn1nc(C(N)=O)c2ccc(Cl)cc21)[C@H]1CC1(Cl)Cl [Example 49, 6-Chloro-1-(2-{(1R,3S,5R)-3-[(R)-1-((R)-2,2-dichloro-cyclopropyl)-ethylcarbamoyl]-2-aza-bicyclo[3.1.0]hex-2-yl}-2-oxo-ethyl)-1H-indazole-3-carboxylic acid amide] | 0.004
9 | CC(=O)c1nn(CC(=O)N2[C@@H]3C[C@@H]3C[C@H]2C(=O)NC[C@H]2CC2(Cl)Cl)c2ccc(OCc3nccc(C)n3)cc12 [Example 56, (1R,3S,5R)-2-{2-[3-Acetyl-5-(4-methyl-pyrimidin-2-ylmethoxy)-indazol-1-yl]-acetyl}-2-aza-bicyclo[3.1.0]hexane-3-carboxylic acid ((R)-2,2-dichloro-cyclopropylmethyl)-amide] | 0.008
10 | C[C@@H](NC(=O)[C@@H]1C[C@H]2C[C@H]2N1C(=O)Cn1nc(C(N)=O)c2ccncc21)C1CCCCC1 [Example 55, 1-{2-[(1R,3S,5R)-3-((R)-1-Cyclohexyl-ethylcarbamoyl)-2-aza-bicyclo[3.1.0]hex-2-yl]-2-oxo-ethyl}-1H-pyrazolo[3,4-c]pyridine-3-carboxylic acid amide] | 0.158
11 | CC(=O)c1nn(CC(=O)N2[C@@H]3C[C@@H]3C[C@H]2C(=O)NCC2CCCC2(C)C)c2cnccc12 (single isomer, unassigned; dia 2) [Example 20] | 0.233
12 | CC(=O)c1nn(CC(=O)N2[C@@H]3C[C@@H]3C[C@H]2C(=O)NCC2CCCCC2(C)C)c2cnccc12 (single isomer, unassigned; dia 1) [Example 21] | 0.118
13 | [2H]C([2H])([2H])[C@@H](NC(=O)[C@@H]1C[C@H]2C[C@H]2N1C(=O)Nc1cn(C(N)=O)c2ccccc12)[C@H]1CC1(Cl)Cl [Example 30, (1R,3S,5R)-2-Aza-bicyclo [3.1.0]hexane-2,3-dicarboxylic acid 2-[(1-carbamoyl-1H-indol-3-yl)-amide] 3-{[(R)-1-((R)-2,2-dichloro-cyclopropyl)-ethyl-2,2,2-D3]-amide}] | 0.015
14 | CC1CCCC1CNC(=O)[C@@H]1C[C@H]2C[C@H]2N1C(=O)Cn1nc(C(N)=O)c2ccncc21 (single isomer, unassigned; dia 3) [Example 87] | 0.459
15 | CC(=O)c1nn(CC(=O)N2[C@@H]3C[C@@H]3C[C@H]2C(=O)NC[C@H]2CC2(Cl)Cl)c2ccc(OCc3ncccc3F)cc12 [Example 99, (1R,3S,5R)-2-{2-[3-Acetyl-5-(3-fluoro-pyridin-2-ylmethoxy)-indazol-1-yl]-acetyl}-2-aza-bicyclo[3.1.0]hexane-3-carboxylic acid ((R)-2,2-dichloro-cyclopropylmethyl)-amide] | 0.032
16 | CO[C@H]1[C@@H](C(=O)NC[C@H]2CC2(Cl)Cl)N(C(=O)Cn2nc(C(N)=O)c3ccc(C)cc32)C[C@@H]1F [Example 48, 1-(2-{(2S,3S,4S)-2-[((R)-2,2-Dichloro-cyclopropylmethyl)-carbamoyl]-4-fluoro-3-methoxy-pyrrolidin-1-yl}-2-oxo-ethyl)-6-methyl-1H-indazole-3-carboxylic acid amide] | 0.027
17 | C[C@@H](NC(=O)[C@@H]1C[C@H]2C[C@H]2N1C(=O)Cn1nc(C(N)=O)c2ccncc21)[C@H]1CC1(Cl)Cl [Example 37, 1-(2-{(1R,3S,5R)-3-[(R)-1-((R)-2,2-Dichloro-cyclopropyl)-ethylcarbamoyl]-2-aza-bicyclo[3.1.0]hex-2-yl}-2-oxo-ethyl)-1H-pyrazolo[3,4-c]pyridine-3-carboxylic acid amide] | 0.011
18 | CC(=O)c1nn(CC(=O)N2[C@@H]3C[C@@H]3C[C@H]2C(=O)N[C@H](C)[C@H]2CC2(Cl)Cl)c2ccc(OCc3cc(C)[nH]n3)cc12 [Example 64, (1R,3S,5R)-2-{2-[3-Acetyl-5-(5-methyl-1H-pyrazol-3-ylmethoxy)-indazol-1-yl]-acetyl}-2-aza-bicyclo[3.1.0]hexane-3-carboxylic acid [(R)-1-((R)-2,2-dichloro-cyclopropyl)-ethyl]-amide] | 0.003
19 | NC(=O)c1nn(CC(=O)N2[C@@H]3C[C@@H]3C[C@H]2C(=O)NC[C@H]2CC2(Cl)Cl)c2cc(F)c(F)cc12 [Example 96, 1-(2-{(1R,3S,5R)-3-[((R)-2,2-Dichloro-cyclopropylmethyl)-carbamoyl]-2-aza-bicyclo[3.1.0]hex-2-yl}-2-oxo-ethyl)-5,6-difluoro-1H-indazole-3-carboxylic acid amide] | 0.307
20 | CC(=O)c1nn(CC(=O)N2[C@@H]3C[C@@H]3C[C@H]2C(=O)NC[C@@H]2CC2(Cl)Cl)c2ncccc12 [Example 68, (1R,3S,5R)-2-[2-(3-Acetyl-pyrazolo[3,4-b]pyridin-1-yl)-acetyl]-2-aza-bicyclo[3.1.0] hexane-3-carboxylic acid ((S)-2,2-dichloro-cyclopropylmethyl)-amide] | 0.177

Same assay, conditions: IC50, Factor D inhibition data using Method 1; recombinant human factor D 10 nM, substrate Z-Lys-thiobenzyl, fluorescence

Row | Compound | IC50 [µM]
21 | CC(=O)c1nn(CC(=O)N2[C@@H]3C[C@@H]3C[C@H]2C(=O)NCC2C(C)C2(Cl)Cl)c2ccc(OCc3ncccn3)cc12 (single isomer, unassigned; dia 2) [Example 109, (1R,3S,5R)-2-{2-[3-Acetyl-5-(pyrimidin-2-ylmethoxy)-indazol-1-yl]-acetyl}-2-aza-bicyclo[3.1.0] hexane-3-carboxylic acid ((1R,3S) or (1S,3R)-2,2-dichloro-3-methyl-cyclopropylmethyl)-amide-Dia 2] | 0.049
22 | CC1C(CNC(=O)[C@@H]2C[C@H]3C[C@H]3N2C(=O)Cn2nc(C(N)=O)c3ccccc32)C1(Cl)Cl (single isomer, unassigned; dia 2) [Example 78, 1-(2-{(1R,3S,5R)-3-[((1R,3S) or (1S,3R)-2,2-Dichloro-3-methyl-cyclopropylmethyl)-carbamoyl]-2-aza-bicyclo[3.1.0]hex-2-yl}-2-oxo-ethyl)-1H-indazole-3-carboxylic acid amide-Dia 2] | 0.062
23 | NC(=O)c1nn(CC(=O)N2[C@@H]3C[C@@H]3C[C@H]2C(=O)NC(CO)C2CC2(Cl)Cl)c2ccccc12 (single isomer, unassigned; dia 4) [Example 51] | 0.246
24 | CC(=O)c1nn(CC(=O)N2[C@@H]3C[C@@H]3C[C@H]2C(=O)NCC2C(C)C2(Cl)Cl)c2ccc(OCc3ncccn3)cc12 (single isomer, unassigned; dia 2) [Example 76, (1R,3S,5R)-2-{2-[3-Acetyl-5-(pyrimidin-2-ylmethoxy)-indazol-1-yl]-acetyl}-2-aza-bicyclo[3.1.0] hexane-3-carboxylic acid ((1R,3R) or (1S,3S)-2,2-dichloro-3-methyl-cyclopropylmethyl)-amide-Dia 2] | 0.003
25 | CC1CCC(CNC(=O)[C@@H]2C[C@H]3C[C@H]3N2C(=O)Cn2nc(C(N)=O)c3ccccc32)C1 (single isomer, unassigned; dia 1) [Example 89] | 0.074
26 | CC(=O)c1nn(CC(=O)N2[C@@H]3C[C@@H]3C[C@H]2C(=O)NC(C)C2CC2(Cl)Cl)c2ccc(OCc3ncccn3)cc12 (single isomer, unassigned; dia 3) [Example 34] | 0.513
